The numbers were not newly measured in patent US7022342B2, “Controlled release oral dosage form of beta-adrenergic blocking agents” (Andrx Corporation, Inc., priority 2002, dated 2006), which cites them from elsewhere.

The conditions of data set [1]: after oral administration of the conventional tablets.

Regarding `CC(C)NCC(O)COc1cccc2ccccc12` (centres unmarked) [Propranolol], the solubility in water entry was “freely soluble”. The “time of peak plasma concentrations” value in data set [1] was 60 to 90 min.
